From US8969542B2, “HPV polyepitope constructs and uses thereof” (priority 2007, dated 2015)
Where no end group is shown, it is not given here.

What was measured:
HLA A6801 = HLA A6801 (Homo sapiens, UniProt P04439, A269V/D185E/E176V/E277Q/E87N/F33Y/G231S/I121M/I166T/I218V/L180W/L300P/L318F/N151K/P208A/P217A/Q86R/R169H/T345S); experiment: HLA class I competition binding assay using soluble HLA
HLA A3101 = HLA A3101 (Homo sapiens, UniProt P04439, A270S/D185E/E176V/E277Q/F33T/G231S/G80R/H175R/I121M/I218V/I322F/K168Q/L300P/L318F/M331R/P217A/Q94H/R138Q/T323A/T345S/T97I/V358M); experiment: as above
HLA A2302 = HLA A2302 (Homo sapiens, UniProt P04439, D101N/D140Y/D185E/E176V/E190D/F33S/G103R/G107R/H175R/I119L/I121M/I306V/K168Q/K335N/L105A/L180W/L300P/N151K/N90K/P307H/Q86E/Q94H/R106L/R138H/R89G/T104I/T345S/V100E/W191G/Y123F); experiment: as above
HLA A3002 = HLA A3002 (Homo sapiens, UniProt P04439, D101N/D140H/D185E/E176R/F33S/G80R/H175R/K168Q/Q94H/R138E/R41S/V100E); experiment: as above
HLA A2402 = HLA A2402 (Homo sapiens, UniProt P04439, D101N/D140Y/D185E/E176V/E190D/F33S/G103R/G107R/I119L/I121M/I306V/K335N/L105A/L180Q/L300P/N151K/N90K/Q86E/Q94H/R106L/R138H/R89G/T104I/T345S/V100E/W191G/Y123F); experiment: as above
HLA A2902 = HLA A2902 (Homo sapiens, UniProt P04439, A270S/D101N/D185E/E176V/E277Q/E87Q/F33T/G231S/H175R/I121M/I218V/I322F/K168Q/L300P/L318F/M331R/P208A/P217A/Q86L/T323A/T345S/V100A/V358M); experiment: as above
HLA A0301 = target: T1, HLA A0301 (Homo sapiens, UniProt P04439); experiment: as above
T1 construct: endogenous in cells

HLA A3301 = HLA A3301 (Homo sapiens, UniProt P04439, A270S/D185E/E176V/E277Q/E87N/F33T/G231S/H175R/I121M/I218V/I322F/K168Q/K210R/L300P/L318F/M331R/P217A/Q86R/Q94H/R138Q/T323A/T345S/T97I/V358M/Y195H); experiment: as above
[1] = tested on: CD8+ spleen cells of HLA transgenic mice (HLA-A01/Kb, F1 HLA-A02/KbxBalb/c, HLA-A11/Kb, HLA-A24/Kb); experiment: Immunogenicity after HPV DNA construct immunization, direct ex vivo IFNγ ELISPOT; assay type: in vivo, mouse; details: for Delta SFC/10^6 cells / Ratio: median of mouse pools; for ICCG6138 SFC/10^6 cells Delta / ICCG6138 SFC/10^6 cells Ratio: immunization with DNA construct ICCG 6138
Protocol: The immunogenicity of HPV HLA class I-restricted epitopes encoded in the DNA constructs was tested in the relevant HLA transgenic mice. […] To ensure an equal distribution of mice between different groups, a randomisation procedure based on body weight was performed. Female and male mice (age between 8 and 24 weeks) were ranked by body weight, extreme light or heavy animals were excluded. The remaining animals were grouped by sequentially assigning animals for the 2 experiments.
Mice were pre-treated with cardiotoxin (Sigma, C9759) on day −4 by bilateral intramuscular injection of 100 μl (2×50 μl) of a 10 μM cardiotoxin solution. Four days later, all mice were immunised with 100 μg HPV-DNA plasmid (diluted to 1 mg/ml in PBS) by bilateral injection of 50 μg in the m. tibialis anterior. […]
(§1) Mice were euthanized and spleen cells (SPC) were isolated 13 days after immunization. […] Spleen cells of DNA- and peptide-immunized HLA-A11/Kb mice were analyzed individually. SPC of all negative control mice were pooled per 2 mice, resulting in 3 data points for each peptide tested.
(§2) A direct ex vivo IFNγ ELISPOT assay was used as surrogate CTL readout. Basically, purified CD8+ cells were incubated with the individual HPV-specific HLA-restricted peptides (10 μg/mL) loaded on the appropriate antigen presenting cells (APC), in anti-mouse IFNγ antibody-coated ELISPOT plates. […] After 20 h incubation, IFNγ-producing cells were visualized by further developing the plates with biotinylated anti-mouse IFNγ antibody, streptavidin-HRP and AEC as substrate.
(§3) Some of the CTL epitopes included in the DNA constructs are analoged sequences of the wild type viral epitopes. For these particular epitopes, only the wild type sequences were used as in vitro stimulus for CTL readout.

[2] = tested on: CD8+ spleen cells of HLA transgenic mice (HLA-A01/Kb, F1 HLA-A02/KbxBalb/c, HLA-A11/Kb, HLA-A24/Kb); experiment: Immunogenicity after peptide pool/IFA immunization, direct ex vivo IFNγ ELISPOT; assay type: in vivo, mouse; details: for Delta SFC/10^6 cells / Ratio: Peptide Pool, median of mouse pools; for Peptide Pool SFC/10^6 cells Delta / Peptide Pool SFC/10^6 cells Ratio: immunization with pool of peptides emulsified in IFA, IFNγ ELISPOT; for Peptide Pool SFC/10^6 cells Delta: HLA transgenic mice (HLA-A01/A02/A11/A24), CD8+ cells restimulated with WT peptide 10 μg/mL; for Peptide Pool SFC/10^6 cells Ratio: HLA transgenic mice, response ratio, WT peptide 10 μg/mL
Protocol: CTL binding epitopes were evaluated for their immunogenicity in different HLA transgenic mice. To this, a single immunization with CTL peptide pools together with a common HTL epitope emulsified in IFA was performed and up to 14 days later, CD8+ spleen cells were isolated and evaluated for epitope specificity using a direct ex vivo IFNγ ELISPOT assay.
Peptides were dissolved in DMSO at a concentration of 10 mg/mL. For each of the 4 DNA constructs, the corresponding HLA-restricted peptides were pooled per HLA type (5 to 7 CTL peptides/pool). A known HTL peptide ([…]) was added and the peptide pools were diluted in PBS to the required peptide concentration (i.e. 25 μg of each CTL peptide and 120 μg HTL peptide in 50 μl). After adding an equal volume of IFA (Pierce, lot DG56079), the mixture was emulsified by forcing it through a small orifice. Mice were immunized subcutaneously at the base of the tail with 50 μl peptide/IFA mixture.
As negative control for the peptide-immunized mice, 18 mice (in total) were injected with a PBS/IFA mixture.
as §1, §2, §3

[3] = HLA-A24 epitopes, HLA-A24/Kb mice, DNA construct ICCG6149
[4] = HLA-A24 epitopes, HLA-A24/Kb mice, DNA construct ICCG6150
[5] = HLA-A24 epitopes, HLA-A24/Kb mice
[6] = HLA transgenic mice (HLA-A01/A02/A11/A24), CD8+ cells restimulated with WT peptide 10 μg/mL, IFNγ ELISPOT
[7] = HLA transgenic mice, response ratio, WT peptide 10 μg/mL, IFNγ ELISPOT
[8] = HLA-A02 epitopes, F1 HLA-A02/KbxBalb/c mice, DNA construct ICCG6149
[9] = HLA-A02 epitopes, F1 HLA-A02/KbxBalb/c mice, DNA construct ICCG6150
[10] = HLA-A02 epitopes, F1 HLA-A02/KbxBalb/c mice

| Compound | IC50 (HLA A2302) [nM] | IC50 (HLA A3002) [nM] | IC50 (HLA A2402) [nM] | IC50 (HLA A2902) [nM] | further results |
| --- | --- | --- | --- | --- | --- |
| RQMNMSQWIK [compound 79] |  |  |  |  | IC50 (HLA A6801): 2560 nM; IC50 (HLA A3101): 45 nM |
| LYGVSFSEL [compound 18] | 7.2 | > 20000 | 3.1 | > 20000 |  |
| VVFIYIPLF [compound 64] |  | 268 | 276 | 302 |  |
| CC[C@H](C)[C@H](NC(=O)[C@H](Cc1ccc(O)cc1)NC(=O)[C@H](Cc1ccccc1)NC(=O)[C@@H](NC(=O)[C@H](CC(N)=O)NC(=O)[C@H](Cc1ccc(O)cc1)NC(=O)CN)[C@@H](C)O)C(=O)N[C@@H](CCC(=O)O)C(=O)N[C@@H](Cc1ccccc1)C(=O)O [compound 41] |  | 1260 | 16 |  |  |
| HYTNWKFIF [compound 63] | 16 | 4850 | 8.5 | 433 |  |
| TVSATQLVK [compound 33] |  |  |  |  | IC50 (HLA A3101): 6140 nM |
| YYMTDAGTW [compound 40] |  |  | 3.2 | 3410 |  |
| ATLQDIVLH [compound 38] |  |  |  |  | IC50 (HLA A0301): 211 nM; IC50 (HLA A3101): 543 nM |
| STVSVGTAK [compound 34] |  |  |  |  | IC50 (HLA A3301): > 20000 nM |
| SYFGMSFIHF [compound 39] |  | 1540 | 17.5 |  |  |
| LSSALEIPY [compound 46] |  | 175 |  |  |  |
| FYSRIRELRF [compound 88] | 1 | > 20000 | 3.2 |  |  |
| FYSKVSEFRW [compound 65] | 8.8 | 1360 | 4.5 | 1780 |  |
| RTEVYQFAFR [compound 82] |  |  |  |  | IC50 (HLA A6801): 439 nM; IC50 (HLA A3101): 8 nM; IC50 (HLA A3301): 696 nM |
| STAAALYWYK [compound 13] |  |  |  |  | IC50 (HLA A3301): 128 nM |
| VYGTTLEKL [compound 66] | 8.2 | 1240 | 26 | > 20000 |  |
| VFTFPHAFPF [compound 84] | 15.9 | > 20000 | 90.4 | 57 |  |

| Compound | IC50 (HLA A2302) [nM] | IC50 (HLA A3002) [nM] | IC50 (HLA A2402) [nM] | IC50 (HLA A2902) [nM] | further results |
| --- | --- | --- | --- | --- | --- |
| QVVPAYNISK [compound 35] |  |  |  |  | IC50 (HLA A0301): 308 nM |
| VYDFAFRDLCI [compound 20] | 8.9 | > 20000 | 22 | > 20000 |  |
| LYNLLIRCF [compound 44] | 10 |  |  | > 20000 |  |
| YYITETGIW [compound 85] | 2 | > 20000 | 8.5 | > 20000 |  |
| NTELYNLLI [compound 70] |  | > 20000 |  | > 20000 |  |
| VFTFPNPFPF [compound 62] | 12 | > 20000 |  | 603 |  |
| PYLHSRLVVF [compound 61] | 2.8 |  | 38.7 | 4370 |  |
| VYQFAFKDL [compound 87] | 1.1 |  | 4 | > 20000 |  |
| 144 (LYGVSFTEL; Human papillomavirus type 16-derived epitope) [compound 144] |  |  |  |  | Delta SFC/10^6 cells [1, 3]: 3 SFC/10^6 cells; Ratio [1, 3]: 1.0; Delta SFC/10^6 cells [1, 4]: 1 SFC/10^6 cells; Ratio [1, 4]: 1.0; Delta SFC/10^6 cells [2, 5]: 5 SFC/10^6 cells; Ratio [2, 5]: 1.1 |
| VYVFCFLLPM [compound 43] | 57 | > 20000 | 178 | 5280 |  |
| 145 (CYSVYGTTL; Human papillomavirus type 16-derived epitope) [compound 145] |  |  |  |  | Delta SFC/10^6 cells [1, 3]: 23 SFC/10^6 cells; Ratio [1, 3]: 1.4; Delta SFC/10^6 cells [1, 4]: 90 SFC/10^6 cells; Ratio [1, 4]: 2.6; Delta SFC/10^6 cells [2, 5]: 55 SFC/10^6 cells; Ratio [2, 5]: 1.8 |
| 146 (QAEPDTSNY; Human papillomavirus type 31) [compound 146] |  |  |  |  | ICCG6138 SFC/10^6 cells Delta [1, 6]: 23 SFC/10^6 cells; ICCG6138 SFC/10^6 cells Ratio [1, 7]: 2.5; Peptide Pool SFC/10^6 cells Delta [2]: 4 SFC/10^6 cells; Peptide Pool SFC/10^6 cells Ratio [2]: 1.2 |
| 147 (LQDVSIACVY; Human papillomavirus type 45) [compound 147] |  |  |  |  | ICCG6138 SFC/10^6 cells Delta [1, 6]: 6 SFC/10^6 cells; ICCG6138 SFC/10^6 cells Ratio [1, 7]: 1.4; Peptide Pool SFC/10^6 cells Delta [2]: 1 SFC/10^6 cells; Peptide Pool SFC/10^6 cells Ratio [2]: 1.0 |
| 136 (KLTNTGLYNL; Human papillomavirus type 18) [compound 136] |  |  |  |  | Delta SFC/10^6 cells [1, 8]: 6 SFC/10^6 cells; Ratio [1, 8]: 2.0; Delta SFC/10^6 cells [1, 9]: 20 SFC/10^6 cells; Ratio [1, 9]: 2.7; Delta SFC/10^6 cells [2, 10]: 280 SFC/10^6 cells; Ratio [2, 10]: 29.0 |
| 153 (HYTNWKFIY; Human papilloma virus) [compound 153] |  |  |  |  | ICCG6137 SFC/10^6 cells Delta ([1]; immunization with DNA construct ICCG 6137, HLA transgenic mice (HLA-A01/A02/A11/A24), CD8+ cells restimulated with WT peptide 10 μg/mL, IFNγ ELISPOT): 19 SFC/10^6 cells; ICCG6137 SFC/10^6 cells Ratio ([1]; immunization with DNA construct ICCG 6137, HLA transgenic mice, response ratio, WT peptide 10 μg/mL, IFNγ ELISPOT): 1.3; ICCG6138 SFC/10^6 cells Delta [1, 6]: 58 SFC/10^6 cells; ICCG6138 SFC/10^6 cells Ratio [1, 7]: 1.3; Peptide Pool SFC/10^6 cells Delta [2]: 155 SFC/10^6 cells; Peptide Pool SFC/10^6 cells Ratio [2]: 2.7 |
| VYVCAFAWLL [compound 86] | 8.1 | > 20000 | 8.4 | 2350 |  |
